# Experimental data reported in ChEMBL document CHEMBL3991601, “The target landscape of clinical kinase drugs” (Science, 2017).
# Activity calls are given as the source filed them. Cut-off read from the data, not from the text of the source, for most assays here: actives have a measured Kd and inactives only a lower limit.
# Tests used:
# [1] = target: Dual specificity protein kinase CLK1 (Homo sapiens, UniProt P49759)
# [2] = target: T1, Non-receptor tyrosine-protein kinase TNK1 (Homo sapiens, UniProt Q13470)
# T1 sequence (Q13470 whole entry): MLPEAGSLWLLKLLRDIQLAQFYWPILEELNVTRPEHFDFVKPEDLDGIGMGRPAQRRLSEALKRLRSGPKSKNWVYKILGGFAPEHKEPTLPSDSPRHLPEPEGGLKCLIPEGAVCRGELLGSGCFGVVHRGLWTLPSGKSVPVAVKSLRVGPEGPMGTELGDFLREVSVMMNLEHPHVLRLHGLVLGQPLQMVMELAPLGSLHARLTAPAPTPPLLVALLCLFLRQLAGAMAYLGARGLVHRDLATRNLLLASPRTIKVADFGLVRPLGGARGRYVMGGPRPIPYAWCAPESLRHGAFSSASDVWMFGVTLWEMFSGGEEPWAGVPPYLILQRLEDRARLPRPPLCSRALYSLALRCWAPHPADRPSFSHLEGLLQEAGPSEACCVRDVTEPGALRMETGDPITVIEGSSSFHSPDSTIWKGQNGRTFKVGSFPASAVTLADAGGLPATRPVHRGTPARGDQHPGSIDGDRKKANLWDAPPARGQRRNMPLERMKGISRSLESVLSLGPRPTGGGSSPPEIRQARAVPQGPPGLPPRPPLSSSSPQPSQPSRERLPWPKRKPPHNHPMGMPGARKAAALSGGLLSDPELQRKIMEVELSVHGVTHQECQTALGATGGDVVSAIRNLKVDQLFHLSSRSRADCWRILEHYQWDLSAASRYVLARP
# [3] = target: T2, Serine/threonine-protein kinase 3 (Homo sapiens, UniProt Q13188)
# T2 sequence (Q13188 whole entry): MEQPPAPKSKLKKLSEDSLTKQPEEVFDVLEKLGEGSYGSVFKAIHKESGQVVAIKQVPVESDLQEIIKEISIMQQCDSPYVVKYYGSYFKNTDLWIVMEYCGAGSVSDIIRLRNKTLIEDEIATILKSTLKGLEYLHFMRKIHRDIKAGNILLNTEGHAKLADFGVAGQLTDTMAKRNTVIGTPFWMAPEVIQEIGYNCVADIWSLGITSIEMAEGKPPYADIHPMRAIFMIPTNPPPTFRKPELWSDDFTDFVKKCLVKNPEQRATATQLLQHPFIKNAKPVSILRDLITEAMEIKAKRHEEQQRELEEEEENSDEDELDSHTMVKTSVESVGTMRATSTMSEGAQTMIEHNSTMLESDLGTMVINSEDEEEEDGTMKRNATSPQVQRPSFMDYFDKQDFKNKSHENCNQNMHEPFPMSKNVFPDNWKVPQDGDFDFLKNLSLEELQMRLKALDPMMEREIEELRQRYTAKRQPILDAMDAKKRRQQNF
# [4] = target: T3, Serine/threonine-protein kinase Chk1 (Homo sapiens, UniProt O14757)
# T3 sequence (O14757 whole entry): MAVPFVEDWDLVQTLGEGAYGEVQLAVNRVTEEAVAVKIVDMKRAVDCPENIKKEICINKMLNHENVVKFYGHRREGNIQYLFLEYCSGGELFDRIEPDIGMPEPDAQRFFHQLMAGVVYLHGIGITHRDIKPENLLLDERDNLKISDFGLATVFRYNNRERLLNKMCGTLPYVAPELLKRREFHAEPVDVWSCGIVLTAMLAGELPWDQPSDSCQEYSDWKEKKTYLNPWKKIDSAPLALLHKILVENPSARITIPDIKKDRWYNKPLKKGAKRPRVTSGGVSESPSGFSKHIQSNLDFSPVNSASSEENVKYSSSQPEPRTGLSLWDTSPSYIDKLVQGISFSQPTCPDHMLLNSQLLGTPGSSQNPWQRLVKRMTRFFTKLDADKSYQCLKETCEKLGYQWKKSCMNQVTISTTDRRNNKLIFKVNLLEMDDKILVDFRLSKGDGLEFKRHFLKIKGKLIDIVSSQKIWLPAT
# [5] = target: DnaJ homolog subfamily A member 1 (Homo sapiens, UniProt P31689)
# DnaJ homolog subfamily A member 1, sequence (P31689 whole entry): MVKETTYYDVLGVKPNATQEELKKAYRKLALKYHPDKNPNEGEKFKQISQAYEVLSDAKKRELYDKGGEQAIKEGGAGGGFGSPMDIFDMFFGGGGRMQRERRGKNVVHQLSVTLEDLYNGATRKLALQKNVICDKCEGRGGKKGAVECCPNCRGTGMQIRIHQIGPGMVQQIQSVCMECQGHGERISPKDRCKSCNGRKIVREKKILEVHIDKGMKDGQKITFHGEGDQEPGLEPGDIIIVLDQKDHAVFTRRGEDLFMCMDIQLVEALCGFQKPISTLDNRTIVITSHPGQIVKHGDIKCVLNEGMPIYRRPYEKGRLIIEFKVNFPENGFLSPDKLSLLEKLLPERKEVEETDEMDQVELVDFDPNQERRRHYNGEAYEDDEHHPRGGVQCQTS
# Activin receptor type-1 = target: T4, Activin receptor type-1 (Homo sapiens, UniProt Q04771)
# T4 sequence (Q04771 whole entry): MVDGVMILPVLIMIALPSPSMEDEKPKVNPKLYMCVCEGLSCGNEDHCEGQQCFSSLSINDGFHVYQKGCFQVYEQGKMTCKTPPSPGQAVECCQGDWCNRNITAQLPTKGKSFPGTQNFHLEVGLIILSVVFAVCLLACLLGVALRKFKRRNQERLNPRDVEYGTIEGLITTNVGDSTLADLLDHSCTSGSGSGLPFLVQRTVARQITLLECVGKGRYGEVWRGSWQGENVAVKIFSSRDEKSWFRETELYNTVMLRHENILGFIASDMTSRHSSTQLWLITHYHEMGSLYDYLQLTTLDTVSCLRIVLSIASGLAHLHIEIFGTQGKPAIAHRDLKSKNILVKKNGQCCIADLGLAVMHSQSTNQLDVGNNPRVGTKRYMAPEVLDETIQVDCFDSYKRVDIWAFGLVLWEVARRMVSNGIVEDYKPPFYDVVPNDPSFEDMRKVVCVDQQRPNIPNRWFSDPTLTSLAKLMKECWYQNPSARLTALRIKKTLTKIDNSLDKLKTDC
# [6] = target: T5, Calcium/calmodulin-dependent protein kinase type IV (Homo sapiens, UniProt Q16566)
# T5 sequence (Q16566 whole entry): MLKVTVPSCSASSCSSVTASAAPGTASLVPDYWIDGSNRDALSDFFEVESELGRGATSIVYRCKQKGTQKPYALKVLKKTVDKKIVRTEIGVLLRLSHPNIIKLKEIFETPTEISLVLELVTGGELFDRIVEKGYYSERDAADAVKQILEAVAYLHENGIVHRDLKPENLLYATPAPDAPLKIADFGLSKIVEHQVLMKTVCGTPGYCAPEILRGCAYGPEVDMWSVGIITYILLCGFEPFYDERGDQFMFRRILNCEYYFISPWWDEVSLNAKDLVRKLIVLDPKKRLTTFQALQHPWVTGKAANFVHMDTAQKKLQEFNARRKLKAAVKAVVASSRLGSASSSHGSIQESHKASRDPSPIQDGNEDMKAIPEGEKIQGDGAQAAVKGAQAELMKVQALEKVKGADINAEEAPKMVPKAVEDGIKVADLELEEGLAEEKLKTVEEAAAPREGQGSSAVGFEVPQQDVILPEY
# Note: in the data inactive means no Kd found up to 30 µM.
# Dual specificity protein kinase CLK1, sequence (P49759 whole entry): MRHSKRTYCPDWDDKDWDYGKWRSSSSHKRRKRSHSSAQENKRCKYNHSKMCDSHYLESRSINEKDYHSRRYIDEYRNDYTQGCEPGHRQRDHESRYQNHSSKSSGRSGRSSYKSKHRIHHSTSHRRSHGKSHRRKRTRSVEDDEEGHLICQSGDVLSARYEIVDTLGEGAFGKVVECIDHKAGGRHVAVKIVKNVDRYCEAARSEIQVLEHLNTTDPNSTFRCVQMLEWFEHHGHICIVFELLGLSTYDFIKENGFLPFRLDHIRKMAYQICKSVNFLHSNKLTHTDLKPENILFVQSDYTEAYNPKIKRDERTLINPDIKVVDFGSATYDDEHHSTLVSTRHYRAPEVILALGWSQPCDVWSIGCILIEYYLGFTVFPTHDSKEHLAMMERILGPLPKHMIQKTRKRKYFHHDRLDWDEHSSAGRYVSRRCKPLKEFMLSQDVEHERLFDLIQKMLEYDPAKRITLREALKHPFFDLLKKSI
Kd [1],Kd [2],Kd [3],Kd [4],Kd [5],Kd (Activin receptor type-1),Kd [6],SMILES
> 30 µM (inactive),1.26 µM (active),0.86 µM (active),> 30 µM (inactive),> 30 µM (inactive),> 30 µM (inactive),> 30 µM (inactive),Cc1cc(Nc2nc(N[C@@H](C)c3ncc(F)cn3)ncc2Cl)n[nH]1 [AZD-1480]
0.246 µM (active),> 30 µM (inactive),> 30 µM (inactive),> 30 µM (inactive),> 30 µM (inactive),> 30 µM (inactive),> 30 µM (inactive),COc1ccc(-c2ccc3ncc4c(c3c2)n(-c2ccc(N3CCNCC3)c(C(F)(F)F)c2)c(=O)n4C)cn1 [BGT-226 FREE BASE]
> 30 µM (inactive),> 30 µM (inactive),> 30 µM (inactive),1.87 µM (active),> 30 µM (inactive),> 30 µM (inactive),> 30 µM (inactive),COc1cccc(Nc2ncnn3ccc(CN4CC[C@@H](N)[C@H](O)C4)c23)c1 [BMS-690514]
> 30 µM (inactive),> 30 µM (inactive),> 30 µM (inactive),> 30 µM (inactive),> 30 µM (inactive),> 30 µM (inactive),> 30 µM (inactive),COc1cc2nccc(Oc3ccc(NC(=O)C4(C(=O)Nc5ccc(F)cc5)CC4)cc3)c2cc1OC [CABOZANTINIB]
> 30 µM (inactive),> 30 µM (inactive),> 30 µM (inactive),> 30 µM (inactive),> 30 µM (inactive),> 30 µM (inactive),> 30 µM (inactive),c1cc(OCCN2CCCCC2)cc(-c2n[nH]c3ccc(-c4nc[nH]n4)cc23)c1 [CC-401]
> 30 µM (inactive),> 30 µM (inactive),> 30 µM (inactive),> 30 µM (inactive),> 30 µM (inactive),> 30 µM (inactive),> 30 µM (inactive),COc1cc2ncnc(Nc3ccc(F)c(Cl)c3)c2cc1NC(=O)/C=C/CN1CCCCC1 [DACOMITINIB ANHYDROUS]
> 30 µM (inactive),0.046 µM,> 30 µM (inactive),> 30 µM (inactive),> 30 µM (inactive),> 30 µM (inactive),> 30 µM (inactive),CC[C@@](C)(Nc1ccnc(-c2c[nH]c3ncccc23)n1)C(=O)NCC(F)(F)F [DECERNOTINIB]
> 30 µM (inactive),0.16 µM (active),> 30 µM (inactive),> 30 µM (inactive),> 30 µM (inactive),> 30 µM (inactive),> 30 µM (inactive),COc1cc(Nc2ncc(F)c(Nc3ccc4c(n3)N(COP(=O)(O)O)C(=O)C(C)(C)O4)n2)cc(OC)c1OC [FOSTAMATINIB]
24.1 µM (active),> 30 µM (inactive),> 30 µM (inactive),> 30 µM (inactive),> 30 µM (inactive),> 30 µM (inactive),> 30 µM (inactive),O=S(=O)(c1cccc2c(O)nccc12)N1CCCNCC1 [HYDROXYFASUDIL]
> 30 µM (inactive),> 30 µM (inactive),> 30 µM (inactive),> 30 µM (inactive),> 30 µM (inactive),> 30 µM (inactive),> 30 µM (inactive),C#Cc1cccc(Nc2ncnc3cc4c(cc23)OCCOCCOCCO4)c1 [ICOTINIB]
> 30 µM (inactive),> 30 µM (inactive),> 30 µM (inactive),> 30 µM (inactive),> 30 µM (inactive),> 30 µM (inactive),> 30 µM (inactive),COc1cc2ncnc3c2cc1OCCCCCN(C)Cc1ccc(Br)cc1N3 [JNJ-26483327]
> 30 µM (inactive),> 30 µM (inactive),> 30 µM (inactive),> 30 µM (inactive),> 30 µM (inactive),> 30 µM (inactive),3.26 µM (active),Cc1ccc(C(=O)Nc2ccc(Oc3cc4cnn(C)c4cc3-c3cn[nH]c3)c(F)c2)c(=O)n1-c1ccc(F)cc1 [MERESTINIB]
> 30 µM (inactive),> 30 µM (inactive),> 30 µM (inactive),> 30 µM (inactive),> 30 µM (inactive),> 30 µM (inactive),> 30 µM (inactive),O=C(NOC[C@H](O)CO)c1ccc(F)c(F)c1Nc1ccc(I)cc1F [MIRDAMETINIB]
> 30 µM (inactive),> 30 µM (inactive),> 30 µM (inactive),> 30 µM (inactive),> 30 µM (inactive),> 30 µM (inactive),> 30 µM (inactive),COc1cccc2cc(-c3nc([C@H]4CC[C@H](C(=O)O)CC4)n4ncnc(N)c34)[nH]c12 [OSI-027]
> 30 µM (inactive),> 30 µM (inactive),> 30 µM (inactive),> 30 µM (inactive),> 30 µM (inactive),> 30 µM (inactive),> 30 µM (inactive),O=C(Nc1ccc(OC(F)(F)F)cc1)c1sccc1NCc1ccnc2ccccc12 [OSI-930]

SMILES,Kd [1],Kd [2],Kd [3],Kd [4],Kd [5],Kd (Activin receptor type-1),Kd [6]
CC1(COc2ccc3c(c2)ncn3-c2ccc3cccc(N4CCC(N)CC4)c3n2)COC1 [CRENOLANIB],> 30 µM (inactive),> 30 µM (inactive),0.743 µM (active),> 30 µM (inactive),> 30 µM (inactive),> 30 µM (inactive),> 30 µM (inactive)
CNC(=O)c1ccc(Nc2ncc(C(F)(F)F)c(NCc3nccnc3N(C)S(C)(=O)=O)n2)cc1 [DEFACTINIB],> 30 µM (inactive),11.3 µM (active),4.95 µM (active),> 30 µM (inactive),> 30 µM (inactive),> 30 µM (inactive),> 30 µM (inactive)
Cc1c(Cn2c(C)nc3c(C(=O)O)cc(N4CCOCC4)cc32)cccc1C(F)(F)F [GSK-2636771],> 30 µM (inactive),> 30 µM (inactive),> 30 µM (inactive),> 30 µM (inactive),> 30 µM (inactive),> 30 µM (inactive),> 30 µM (inactive)
